Legend:
Assay type in all cases: cell-based, human
HCT116 cells [1] = experiment: C-circle assay (extrachromosomal circular telomeric DNA); settings: C-circle assay in HCT116 cells treated for 3 to 7 days
Description: HCT116 cell were incubated for 3, 5 or 7 days in McCoy's 5a medium with 10% Fetal Bovine Serum, 2 mM L-Glutamine and Penicilin/Streptomycin 200 U/l each and supplemented with Compound 1-9. C-circle assay that utilizes rolling circle amplification of circular DNA by φ29 polymerase was performed as described in Henson, J.D., Lau, L.M., Koch, S., Martin La Rotta, N., Dagg, R.A., and Reddel, R.R. (2017). The C-Circle Assay for alternative-lengthening-of-telomeres activity. Methods 114, 74-84. Amplified circular telomeric DNA was detected by dot blot hybridization with P^32-labeled telomeric DNA oligonucleotide (5'-[…]-3' (SEQ ID NO: 6)) (Figure 4).

HCT116 cells [2] = experiment: Q-FISH scoring of chromosome arms with no telomeric signal; settings: HCT116, one or two days, 2 or 5 µM
Description: Presence of extrachromosomal circular telomeric DNA indicates rapid telomere shortening via excision of telomeric circles. To validate this prediction, we scored chromosome arms with no telomeric signal on metaphase chromosomes from iKU-1 treated cells by quantitative fluorescence in situ hybridization (Q-FISH). HCT116 cells were incubated for one or two days in McCoy's 5a medium with 10% Fetal Bovine Serum, 2 mM L-Glutamine and Penicilin/Streptomycin 200 U/l each and supplemented with iKU-1 (2 or 5 µM). Treated cells were incubated with colcemid (0.05 µg/ml) for 3 hours to increase a number of cells in metaphase. Cells were harvested and fixed in methanol and glacial acetic acid (3:1 v/v). Chromosome spreads on slides were hybridized with telomeric peptide nucleid acid probe TelC-Cy3 (Panagene, F1002) in 70% formamide, 0.5% blocking reagent (Roche) and 20 mM TRIS-Cl pH 7.4 according manufacturer's instruction. After washing, slides were counterstained with DAPI and mounted in […]® Antifade Mounting Medium with DAPI (Vector Laboratories; H-1200-10). Fluorescence microscope with oil immersed 100× objective was used to detect telomeric signal at chromosome ends.

DNA-PKcs = DNA-PKcs autophosphorylation (S2056) after bleomycin, Western blotting in HCT116 cells; settings: HCT116, pre-incubated 1 hr
Description: iKU-1 blocks activation of DNA-PKcs upon induction of DNA damage in vivo (Figure 2). HCT116 cells were pre-incubated with iKU-1 for 1 hr in McCoy's 5a medium supplemented with 10% Fetal Bovine Serum, 2 mM L-Glutamine, Penicilin/Streptomycin 200 U/l each. DNA breaks were induced by addition of bleomycin and incubated for additional 4 hrs. DNA damage triggers DNA-PKcs activity that leads to its autophosphorylation at the residue 2056. The phosphorylated DNA-PKcs was detected by Western blotting using anti-pDNA PKcs (phospho S2056) antibody [EPR5670] (Abcam, ab124918) and the total amount of DNA-PKcs with the anti-DNA PKcs antibody (BioRad, AHP318), both in 1:10000 dilution in TBS-T buffer overnight at 4°C. The primary antibody was detected by immunostaining with IRDye 800CW-conjugated Goat anti-Rabbit IgG secondary antibody (dilution 1:20000 in TBS-T). The signal was imaged using Odyssey Imager (Li-Cor). […] The total level of DNA-PKcs was not altered by the treatment.

HCT116 cells [3] = experiment: Telomere Shortest Length Assay; settings: HCT116 treated for two days, compared with untreated control
Description: iKU-1 induces rapid shortening of telomeres (Figure 6). HCT116 cells were treated for two days with iKU-1 and telomere size was measured by Telomere Shortest Length Assay as described in Lai, T.P., Zhang, N., Noh, J., Mender, I., Tedone, E., Huang, E., Wright, W.E., Danuser, G., and Shay, J.W. (2017). A method for measuring the distribution of the shortest telomeres in cells and tissues. Nat Commun 8, 1356, whereby individual telomeres are PCR-amplified, separated by agarose gel electrophoresis and detected by Southern hybridization with P^32-labeled telomeric DNA oligonucleotide (5'-[…]-3' (SEQ ID NO: 6)).

O=C(Nc1nc(-c2ccccn2)cs1)c1cncc(Br)c1 [Compound 1]
Concentration inducing c-circle formation (HCT116 cells [1]): 1 µM | incidence of telomere-free chromosome ends (HCT116 cells [2]): increase incidence of telomere-free chromosome ends | total level of DNA-PKcs (DNA-PKcs; then bleomycin for 4 hrs): not altered | phosphorylation of DNA-PKcs (S2056) (DNA-PKcs; then bleomycin up to 30 µg/ml for 4 hrs): blocked the phosphorylation | size of telomeres (HCT116 cells [3]): relative decrease in the size of telomeres

— EP4342467A1, “KU INHIBITORS FOR USE IN TUMOR THERAPY” (Masarykova Univerzita, priority 2022, dated 2024)
